Test: xn = mol fraction of the nth substance listed
Settings: 101 kPa, Liquid

CCOC(=O)OCC [diethyl carbonate] + CCCCCCO
Settings | mass density, 293.15 K [kg/m3] | mass density, 303.15 K [kg/m3] | speed of sound, 293.15 K [m/s] | speed of sound, 303.15 K [m/s] | viscosity, 293.15 K [mPa·s] | viscosity, 303.15 K [mPa·s]
x1 = 0.0502 | 825.96 | 818.55 | 1301 | 1267 | 4.731 | 3.486
x1 = 0.1123 | 834.86 | 827.16 | 1291 | 1256 | 4.164 | 3.03
x1 = 0.1499 | 840.29 | 832.48 | 1285 | 1249 | 3.715 | 2.796
x1 = 0.2103 | 849.1 | 841.04 | 1275 | 1240 | 3.178 | 2.403
x1 = 0.2508 | 855.05 | 846.79 | 1268 | 1234 | 2.837 | 2.165
x1 = 0.3121 | 864.19 | 855.69 | 1259 | 1225 | 2.382 | 1.859
x1 = 0.3576 | 871.02 | 862.23 | 1252 | 1217 | 2.078 | 1.621
x1 = 0.4113 | 879.15 | 870.21 | 1245 | 1210 | 1.757 | 1.414
x1 = 0.4632 | 887.08 | 877.88 | 1239 | 1204 | 1.488 | 1.22
x1 = 0.5111 | 894.51 | 885.13 | 1234 | 1200 | 1.247 | 1.063
x1 = 0.552 | 900.88 | 891.35 | 1230 | 1197 | 1.115 | 0.951
x1 = 0.6008 | 908.59 | 898.87 | 1226 | 1194 | 0.956 | 0.844
x1 = 0.6498 | 916.39 | 906.42 | 1222 | 1193 | 0.863 | 0.811
x1 = 0.7108 | 926.19 | 915.93 | 1219 | 1192 | 0.859 | 0.804
x1 = 0.7554 | 933.45 | 923.08 | 1216 | 1191 | 0.84 | 0.774
x1 = 0.8112 | 942.65 | 932.03 | 1213 | 1190 | 0.831 | 0.748
x1 = 0.8501 | 949.13 | 938.29 | 1211 | 1189 | 0.825 | 0.73
x1 = 0.9002 | 957.5 | 946.57 | 1208 | 1188 | 0.818 | 0.724
x1 = 0.9555 | 966.89 | 955.77 | 1206 | 1187 | 0.803 | 0.713

Source: the NIST ThermoML archive (doi:10.1021/je600519p)
